These results are taken from paper PMC10458307, “New Scaffolds of Proteasome Inhibitors: Boosting Anticancer Potential by Exploiting the Synergy of In Silico and In Vitro Methodologies” (Pharmaceuticals, 2023).

Data set [1] is described as follows: Cell viability, MTT assay, K562. The settings on record: human, K562 leukemia cells, read-out: percentage of cell viability, MTT, K562; for viability at 72 h, 10 µM: at 10 µM; for viability at 72 h, 100 µM: at 100 µM. It counts as cell-based, human. The protocol:
(§1) Whenever possible, additional concentrations were tested and IC50 values were determined.
(§2) Human leukemia Jurkat E6.1 T-cell line and K562-cell line were originally obtained from ATCC Collections (Manassas, VA, USA); human HT-29 and HCT116 colorectal carcinoma-cell lines were obtained from ECACC (Porton Down, Porton, UK). Cells were passaged for less than 6 months after and routinely tested for mycoplasma contamination using Mycoalert detection kit (Lonza, Basel, Switzerland). Jurkat, K562, and HT-29 cells were maintained in Roswell Park Memorial Institute (RPMI) 1640 with GlutaMAX™, supplemented with 1% antibiotic mixture (100 µg/mL streptomycin and 100 U/mL penicillin) and 10% heat-inactivated foetal bovine serum (FBS) (all from Gibco, Thermo Fisher Scientific, Paisley, UK). HCT116 cells were maintained in Dulbecco’s Modified Eagle Medium (DMEM) with GlutaMAX™, supplemented with 1% antibiotic mixture (100 µg/mL streptomycin and 100 U/mL penicillin) and 10% heat-inactivated FBS (all from Gibco, Thermo Fisher Scientific, Paisley, UK). Incubation was performed at 37 °C in a 5% CO2 atmosphere. Cells were routinely passaged every 2 or 3 days at 70–90% confluence; TrypLE Express (Gibco, Thermo Fisher Scientific, Paisley, UK) was used as dissociation agent for adherent cells. Trypan blue (Gibco, Thermo Fisher Scientific, Paisley, UK) was used to assess cell viability using the dye exclusion test.
(§3) To assess cell viability, the MTT assay was performed. Jurkat/K562/HT-29/HCT116 cell lines were seeded in triplicate (10,000 cells/well) in 96-well plates with 50 µL of complete medium and incubated at 37 °C, 5% CO2 for 24 h to allow the cells to adhere to the plate (in the case of adherent cells). […] Untreated cells seeded in triplicate were used as control. The blank was performed in triplicate with 100 µL of culture medium. The cells were incubated with the compounds, in triplicate, in 100 µL of total volume, at 37 °C, 5% CO2 for 72 h. […] In suspension cells (Jurkat), 25 µL of MTT were directly added to each well and, after 3 h 30 m of incubation, 100 µL of DMSO were added to solubilize the formazan crystals; in adherent cells (HT-29 and HCT116), the culture medium was removed, 25 µL of MTT were added to each well and, after 3 h 30 m of incubation, upon MTT removal, 100 µL of DMSO were added to solubilize the formazan crystals. After 15 min, the samples absorbance was measured at 570 nm and the percentage of cell viability was determined.

Data set [2] can be described thus: Cell viability, MTT assay, HT-29. The format is cell-based, human. Particulars: human, HT-29 colorectal carcinoma cells, read-out: percentage of cell viability, MTT, HT-29; for viability at 72 h, 10 µM: at 10 µM; for viability at 72 h, 100 µM: at 100 µM. The method, then:
as §1, §2, §3

Data set [3] deals with T1, isolated human 20S proteasome, CT-L activity (Homo sapiens, UniProt P20618+P28074).
T1 construct: human purified erythrocyte-derived 20S proteasome; purchased Enzo Life Sciences, Inc; host or cells: human erythrocytes (natural source)
The data set is described as follows: Proteasome inhibition assay in isolated human 20S proteasomes (Proteasome-Glo), CT-L activity. It counts as biochemical. Particulars: for inhibition at 10 µM: read-out: percentage of proteasome inhibition, CT-L, isolated 20S proteasome; for percentage of proteasome inhibition, CT-L, isolated human 20S proteasome: at 100 µM, Table 1 legend: bortezomib positive control 10 µM. The text has this:
In this assay, the peptide substrates are bound to aminoluciferin (Suc-LLVY-AML for CT-L activity, Z-nLPnLD-AML for C-L, and Z-LRR-AML for T-L), leading the cleavage of these substrates by the proteasome to the release of free aminoluciferin, which is the substrate of the buffer-contained luciferase.
To evaluate human purified erythrocyte-derived 20S proteasome inhibitory activity of the chosen compounds, the Proteasome-Glo™ 3-substrate system (Promega Corporation, Madison, WI, USA) was employed. The Proteasome-Glo™ reagents of the three proteolytic activities were prepared according to the manufacturer’s instructions, aliquoted, and stored at either −20 °C or 4 °C, avoiding freezing–thaw cycles. […] The purified 20S proteasome (Enzo Life Sciences, Inc., Farmingdale, NY, USA) was diluted in HEPES buffer 10 mM, pH 7.4, to a concentration experimentally adjusted to the signal/noise ratio obtained with each particular lot of Proteasome-Glo™ reagent, in order to have a good compromise between sensitivity and linear response. […] All assays were performed in white-walled multiwell plates (Thermo Scientific™ Sterilin™ White Microtiter™ plates, Thermo Fisher Scientific, Paisley, UK) in duplicates. The proteasome solution (25 μL) was added to each well first, then the diluted solutions of the assayed compounds (25 μL), and lastly the Proteasome-Glo™ Reagent (50 μL). […] Reagents were added to the plate well on ice, and the plate was then transferred to the plate luminometer (SpectraMax®, Molecular Devices, LLC, San Jose, CA, USA) set at 37 °C, gently mixed for 30 s, and the measurements were immediately started in kinetic mode, with data collected every 5 min for at least 60 min.
All compounds were dissolved in DMSO at a concentration of 10 mM and stored at −20 °C or 4 °C. Solutions of the test compounds were prepared at their adequate dilutions in 10 mM HEPES buffer pH 7.6 before each experiment.
To calculate the proteasome activity over time, the value of mean relative luminescence units (RLU) of blank wells at each respective time point was subtracted, and then the ratio between mean RLU of the sample and mean RLU of the positive control wells was calculated for each time point and expressed as percentage.

The target of data set [4] is T2, 20S proteasome in K562 cell lysates, CT-L activity (Homo sapiens, UniProt P28074).
T2 sequence (P28074 60-263): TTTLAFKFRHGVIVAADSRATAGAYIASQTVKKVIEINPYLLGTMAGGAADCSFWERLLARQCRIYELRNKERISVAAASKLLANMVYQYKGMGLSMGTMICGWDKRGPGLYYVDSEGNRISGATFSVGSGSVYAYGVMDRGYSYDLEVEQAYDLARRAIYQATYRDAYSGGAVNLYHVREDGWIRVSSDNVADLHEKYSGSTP
T2 sequence (P20618 29-241 partner): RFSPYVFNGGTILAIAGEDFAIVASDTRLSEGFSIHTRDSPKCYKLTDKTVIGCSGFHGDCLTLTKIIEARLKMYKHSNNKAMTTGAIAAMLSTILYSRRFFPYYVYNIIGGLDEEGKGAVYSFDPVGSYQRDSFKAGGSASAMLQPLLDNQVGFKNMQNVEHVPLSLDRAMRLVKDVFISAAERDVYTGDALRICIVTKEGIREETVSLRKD
The data set is described as follows: Proteasome inhibition assay in cell lysates, K562, CT-L. The settings on record: for inhibition at 10 µM: read-out: percentage of proteasome inhibition, CT-L, cell lysates K562, at 10 µM; for inhibition at 100 µM: read-out: percentage of proteasome inhibition, CT-L, cell lysates K562, at 100 µM.
Experimental: (§4) Cells were obtained from several cultured cell lines: Jurkat, K562, HT-29, and HCT116. Pellets with 20 × 10^6 cells were prepared and washed with cold sterile phosphate buffered saline (PBS), 1×, pH 7.4 (Gibco, Thermo Fisher Scientific, Paisley, UK). The preparation of the lysates from several cell lines was performed based on the methodology described by Gavioli et al. [67]. Cells were resuspended in buffer containing 50 mM TRIS-HCl pH 7.4 (Nzytech, Lisboa, Portugal), 5 mM MgCl2 (≥98% purity, Merck, Hamburg, Germany), 1 mM DTT (Merck, Hamburg, Germany), 2 mM ATP (≥98% purity, Enzo Life Sciences Inc., Farmingdale, NY, USA), and 250 mM saccharose (Merck, Hamburg, Germany). Glass beads (Merck, Hamburg, Germany) equivalent to the volume of the cell suspension were added, and the mixture was vortexed for 2 min at 4 °C. Beads and cell debris were removed using 5 min centrifugation at 1000× g and 4 °C, followed by 20 min of centrifugation at 10,000× g at 4 °C. Cell lysates containing proteasomes were resuspended in “activity buffer” [50 mM TRIS-HCl (pH 7.4), 5 mM MgCl2, 1 mM DTT, 2 mM ATP (≥98% purity, Enzo Life Sciences Inc., Farmingdale, NY, USA), and 500 µM EDTA (≥98% purity, Merck, Hamburg, Germany)]. Protein concentration was determined using the Pierce™ BCA protocol (Thermo Fisher Scientific, Rockford, IL, USA). […] DMSO was added in an equal volume as used for the untreated compounds as a way to assess/control its influence in the assay. Untreated cells were used as control. In each well of a 96-well plate, 25 µL of lysate were seeded in duplicate with 25 µL of the compound to test; in the control, 25 µL of activity buffer were added to the 25 µL of lysate. A blank (50 µL of activity buffer) was added to the wells in quadruplicate. Cell lysates, pre-treated or not with different concentrations of the test compounds, were incubated for 30 min at 37 °C. […] Stock solutions (10 mM) of each substrate were prepared in DMSO, diluted in activity buffer, and 50 µL were added to all wells (final concentration of each substrate = 100 µM), followed by an incubation at 37 °C for 60 min. Samples fluorescence was measured at an excitation wavelength of 360 nm and emission of 465 nm; the fluorescence measures were performed using the GloMax-Multi + Detection System (Promega Corp., Madison, WI, USA). Activity was evaluated in fluorescence units, after being converted to percentage of proteasome inhibition and, whenever possible, expressed as IC50 by plotting the inhibition data of each compound at different concentrations against the log of the concentration of the inhibitor, using the GraphPad Prism software version 7. At least eight different concentrations of the test compounds were used.

The target of data set [5] is T3, 20S proteasome in Jurkat cell lysates, CT-L activity (Homo sapiens, UniProt P28074).
T3 sequence (P28074 60-263): T2 sequence (P28074 60-263)
T3 sequence (P20618 29-241 partner): T2 sequence (P20618 29-241 partner)
The data set is described as follows: Proteasome inhibition assay in cell lysates, Jurkat, CT-L. Particulars: for inhibition at 10 µM: read-out: percentage of proteasome inhibition, CT-L, cell lysates Jurkat, at 10 µM; for inhibition at 100 µM: read-out: percentage of proteasome inhibition, CT-L, cell lysates Jurkat, at 100 µM.
Experimental: as §4

The mark [6] stands for this setting: at 100 µM, Table 2 legend: bortezomib 10 µM.
The mark [7] stands for this setting: Table 2 legend: bortezomib 10 µM.
Setting [8] is: mean ± SD, read-out: IC50, CT-L, isolated human 20S proteasome.

Values joined by “and” are separate entries in the source; they are usually repeats but may differ in a detail not shown here. Identical values can stand only once. Like-named read-outs stand apart in the source and are kept apart here.

Regarding `CC(C)C[C@H](NC(=O)[C@H](Cc1ccccc1)NC(=O)c1cnccn1)B(O)O` [Bortezomib, bortezomib, reference compound], the viability at 72 h, 10 µM in data set [1] and in data set [2] was 0% in each case. The viability at 72 h, 100 µM in data set [1] and in data set [2] was 0% in each case. In addition, the inhibition at 10 µM in data set [3] (at 10 µM) was 91%. The “percentage of proteasome inhibition, CT-L, isolated human 20S proteasome” value in data set [3] is 99.92% and 100%. Moreover, the “percentage of proteasome inhibition, CT-L, cell lysates K562” value was 95.17% in data set [4] (at 10 µM); 99.60% and 100% in data set [4] (setting [6]). Also, the “percentage of proteasome inhibition, CT-L, cell lysates Jurkat” value in data set [5] (at 10 µM) is 99.63%; in data set [5] (setting [6]), 99.30% and 99%.

As for `Cc1ccc2ccccc2c1CSc1ncnc2c1ncn2C1OC(CO)C(O)C1O` (stereo not drawn) [Compound 1], the viability at 72 h, 10 µM in data set [1] was 93.1%; in data set [2] it was 96.7%. Also, the viability at 72 h, 100 µM in data set [1] amounted to 18.2%; in data set [2], 23.3%. Also, the inhibition at 10 µM in data set [3] (at 10 µM), in data set [4] and in data set [5] was 0% in each case. Also, the “percentage of proteasome inhibition, CT-L, isolated human 20S proteasome” value in data set [3] was 37.72% and 38%. The “percentage of proteasome inhibition, CT-L, cell lysates K562” value in data set [4] (setting [6]) amounted to 63%. In addition, the inhibition at 100 µM was found to be 62.7% in data set [4] (setting [7]) and 53.5% in data set [5] (setting [7]). Further, the “percentage of proteasome inhibition, CT-L, cell lysates Jurkat” value in data set [5] (setting [6]) is recorded as 54%.

`O=C1c2ccccc2C(=O)c2c(Nc3ccc(S(=O)(=O)N(CCO)CCO)cc3)ccc(O)c21` [Compound 2]: the values for the viability at 72 h, 10 µM in data set [1] and in data set [2] were 86.3% and 79.9%, respectively. Moreover, in data set [2], the viability at 72 h, 100 µM is 65.4%. The results for the inhibition at 10 µM in data set [3] (at 10 µM), in data set [4] and in data set [5] were 81.3%, 13.2% and 8.23%, respectively. Further, the “percentage of proteasome inhibition, CT-L, isolated human 20S proteasome” value in data set [3] turned out to be 98%. In addition, the figures for the IC50 in data set [3] (setting [8]) and in data set [5] were 5.6 µM and 73.2 µM, respectively. In data set [4] (setting [6]), the “percentage of proteasome inhibition, CT-L, cell lysates K562” value worked out at 40%. Also, the inhibition at 100 µM in data set [4] (setting [7]) was 40.1%; in data set [5] (setting [7]), 72.1%. The “percentage of proteasome inhibition, CT-L, cell lysates Jurkat” value in data set [5] (setting [6]) is on record as 72%.

With `Cc1ccc(/C(=N/NS(=O)(=O)c2ccc([N+](=O)[O-])cc2)Sc2cc(Cl)c(C)cc2S(N)(=O)=O)cc1` [Compound 3], the viability at 72 h, 10 µM in data set [1] and in data set [2] was 100% throughout. In addition, the viability at 72 h, 100 µM in data set [1] and in data set [2] was 100% throughout. The same molecule displayed an IC50 in data set [3] of 49.3 µM. In data set [3], the “percentage of proteasome inhibition, CT-L, isolated human 20S proteasome” value was 91.40% and 91%. The inhibition at 10 µM turned out to be 8.2% in data set [3], 9.34% in data set [4] and 0% in data set [5]. Further, the “percentage of proteasome inhibition, CT-L, cell lysates K562” value in data set [4] (setting [6]) was determined as 59%. Besides, the inhibition at 100 µM was found to be 59.1% in data set [4] (setting [7]) and 32.8% in data set [5] (setting [7]). Further, the “percentage of proteasome inhibition, CT-L, cell lysates Jurkat” value in data set [5] (setting [6]) is listed as 33%.

`C#CCCN1CCN(c2ccc(-n3c(=O)ccc4cnc5ccc(-c6ccc(N)nc6)cc5c43)cc2C(F)(F)F)CC1` [Compound 4, 9-(6-Aminopyridin-3-yl)-1-(4-(4-(but-3-yn-1-yl)piperazin-1-yl)-3-(trifluoromethyl)phenyl)benzo[h][1,6]naphthyridin-2(1H)-one]: in data set [2], the viability at 72 h, 10 µM was determined as 94.1% and the viability at 72 h, 100 µM amounted to 34.3%. The inhibition at 10 µM in data set [3] (at 10 µM) came out at 3.3%. Further, the “percentage of proteasome inhibition, CT-L, isolated human 20S proteasome” value in data set [3] is 69.90% and 70%. Further, the IC50 in data set [3] (setting [8]) turned out to be 51.1 µM. Further, in data set [5], the IC50 is 24.3 µM and the inhibition at 10 µM is 10.5%. Moreover, the inhibition at 100 µM in data set [5] (setting [7]) worked out at 98%.

For the molecule `CC(C)c1nc(CN(C)C(=O)N[C@@H](CCN2CCOCC2)C(=O)N[C@H](CC[C@H](Cc2ccccc2)NC(=O)OCc2cncs2)Cc2ccccc2)cs1` [Compound 5, cobicistat, reference compound], the viability at 72 h, 10 µM in data set [2] came out at 98.3%. Further, the viability at 72 h, 100 µM in data set [2] worked out at 25.4%. For the same molecule, the inhibition at 10 µM in data set [3] (at 10 µM) was 2.85%; in data set [5], 0%. The “percentage of proteasome inhibition, CT-L, isolated human 20S proteasome” value in data set [3] was 35.60% and 36%. Moreover, the “percentage of proteasome inhibition, CT-L, cell lysates Jurkat” value in data set [5] (setting [6]) turned out to be 64%. Also, in data set [5] (setting [7]), the inhibition at 100 µM was 63.7%.
